# Data: ChEMBL document CHEMBL1128387, “Sigma ligands with subnanomolar affinity and preference for the sigma 2 binding site. 2. Spiro-joined benzofuran, isobenzofuran, and benzopyran piperidines” (J Med Chem, 1995)
# How the values were obtained:
# [1] = target: Sigma non-opioid intracellular receptor 1 (Rattus norvegicus, UniProt Q9R0C9); assay: Compound was evaluated for the binding affinity towards Sigma receptor type 1 using radioligand ([3H]-(+)- Pentazocine) binding assay.
# [2] = target: Sigma intracellular receptor 2 (Rattus norvegicus, UniProt Q5U3Y7); assay: Binding affinity towards Sigma receptor type 2 in whole rat brain homogenates except cerebellum using radioligand ([3H]DTG) binding assay.; format: tissue-based
# Sigma intracellular receptor 2, sequence (Q5U3Y7 whole entry, looked up): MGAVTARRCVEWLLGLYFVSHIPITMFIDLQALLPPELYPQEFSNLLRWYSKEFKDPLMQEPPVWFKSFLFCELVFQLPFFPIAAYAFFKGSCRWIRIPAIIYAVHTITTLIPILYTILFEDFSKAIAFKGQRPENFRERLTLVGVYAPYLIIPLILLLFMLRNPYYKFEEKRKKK
# Sigma non-opioid intracellular receptor 1, sequence (Q9R0C9 whole entry): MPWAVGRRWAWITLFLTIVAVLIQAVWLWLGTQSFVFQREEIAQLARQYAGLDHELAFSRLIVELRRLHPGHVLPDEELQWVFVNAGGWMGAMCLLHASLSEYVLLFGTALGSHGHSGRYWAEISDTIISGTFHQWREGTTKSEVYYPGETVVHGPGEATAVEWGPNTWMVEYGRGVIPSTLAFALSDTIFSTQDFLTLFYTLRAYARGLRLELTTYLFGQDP
SMILES,IC50 [1],IC50 [2]
Fc1ccc(-n2cc(CCCCN3CCC4(CC3)SCc3ccccc34)c3ccccc32)cc1,35 nM,
Fc1ccc(-n2cc(CCCCN3CCC4(CC3)OCc3cccc(F)c34)c3ccccc32)cc1,150 nM,
CCN1CCC2(CC1)OCc1ccccc12,140 nM,270 nM
Fc1ccc(-n2cc(CCCCN3CCC4(CC3)Cc3ccccc3O4)c3ccccc32)cc1,360 nM,
c1ccc(CN2CCC3(CCCc4ccccc43)CC2)cc1,,12 nM
c1ccc(CCCCN2CCC3(CC2)OCc2ccccc23)cc1,0.27 nM,
Fc1ccc(-n2cc(CCCCN3CCC4(CC3)COc3ccccc34)c3ccccc32)cc1,3.8 nM,
Fc1ccc(-n2cc(CCCCN3CCC4(CC3)COc3ccccc3C4)c3ccccc32)cc1,200 nM,
Fc1ccc(-n2cc(CCCCN3CCC4(CCOc5ccccc54)CC3)c3ccccc32)cc1,7 nM,
c1ccc2c(c1)COC21CCN(CCCOC2CCCCC2)CC1,0.4 nM,
Fc1ccc(-n2cc(CCCCN3CCC4(CC3)OCc3c(F)cccc34)c3ccccc32)cc1,290 nM,
c1ccc(CCCN2CCC3(CC2)OCc2ccccc23)cc1,0.56 nM,
Fc1ccc(-n2cc(CCCCN3CCC4(CC3)OCc3c(C(F)(F)F)cccc34)c3ccccc32)cc1,180 nM,
Fc1ccc(-n2cc(CCCCN3CCC4(CC3)Oc3ccccc3O4)c3ccccc32)cc1,430 nM,
CC(C)N1CCC2(CC1)OCc1ccccc12,31 nM,49 nM
c1ccc2c(c1)COC21CCN(CCCCC2CCCCC2)CC1,1.5 nM,
Fc1ccc(-n2cc(CCCCN3CCC4(CC3)Cc3ccccc3CO4)c3ccccc32)cc1,23 nM,
Fc1ccc(-n2cc(CCCCN3CCC4(CC3)COCc3ccccc34)c3ccccc32)cc1,3.4 nM,
CCCN1CCC2(CC1)OCc1ccccc12,4.7 nM,23 nM
Cc1ccc2c(c1)COC21CCN(CCCCc2cn(-c3ccc(F)cc3)c3ccccc23)CC1,9.5 nM,2.3 nM
c1ccc(CCCCCN2CCC3(CC2)OCc2ccccc23)cc1,0.82 nM,
c1ccc2c(c1)COC21CCNCC1,630 nM,11000 nM
c1ccc(CCN2CCC3(CC2)OCc2ccccc23)cc1,2.2 nM,
Fc1ccc(-n2cc(CCCCN3CCC4(CC3)OCCc3ccccc34)c3ccccc32)cc1,53 nM,
